Measured values as given in patent US11237155B2, “Screening methods using olfactory receptors and novel compounds identified using the same” (MARS, INCORPORATED, priority 2016, dated 2022).

How the values were obtained:
Assay type in all cases: cell-based
Cat OR5A1 = assay: CNG chAMPion assay, OR_9 (OR5A1), cat ortholog; details: cat OR5A1, phase 3
Protocol: chAMPion (CNG channel) assay. HEK293/CNG/nat-Clytin/RTP1 s endo cells were transiently transfected with plasmids encoding the respective OR and were seeded at 20,000 cells/well in 25 μL/well complete growth medium in poly-D-lysine coated black, clear-bottom 384 MTPs.
Data were analyzed with the Screenworks® software (Molecular Devices, version 4.0.0.30). Luminescence values (in RLU) were exported as maximum RLU between 10 s and 40 s. In addition to using raw values, the data were also normalized to background signals (wells containing buffer only) and expressed as “Fold change” (mean value (n=2)/mean value of buffer wells (n=2)). Data analysis and plotting of graphs was carried out using Excel (Microsoft) and GraphPad Prism (GraphPad Software, Inc.).

Human OR5A1 = target: T1, Human OR5A1 (Homo sapiens, UniProt Q8NGJ0); assay: CRE-NanoLuc luciferase assay, OR_9 (OR5A1), human ortholog; details: human OR5A1, phase 3
T1 construct: expressed in transfected cells; host or cells: HEK293 PEAKrapid/RTP1s endo (reporter cell line A)
T1 sequence (Q8NGJ0 1-315): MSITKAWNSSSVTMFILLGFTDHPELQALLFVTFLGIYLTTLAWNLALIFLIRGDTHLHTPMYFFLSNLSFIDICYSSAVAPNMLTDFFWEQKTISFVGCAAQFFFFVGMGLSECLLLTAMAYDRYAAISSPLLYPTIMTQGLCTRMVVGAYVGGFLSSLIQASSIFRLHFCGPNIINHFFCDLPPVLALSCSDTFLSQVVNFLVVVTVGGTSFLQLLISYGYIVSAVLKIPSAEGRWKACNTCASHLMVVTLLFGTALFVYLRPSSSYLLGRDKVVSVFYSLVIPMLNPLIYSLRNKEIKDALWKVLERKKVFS

Dog OR5A1 = assay: CNG chAMPion assay, OR_9 (OR5A1), dog ortholog; details: dog OR5A1, phase 3
Text: This example refers to the functional expression of different feline and canine olfactory receptors (ORs). 20 OR sequences were selected, where 10 sequences have feline origins and the remaining 10 have canine origins. These ORs were subcloned into a modified expression vector suitable for the transient, functional expression of ORs. The transiently expressed receptors were then stimulated with various concentrations of different odorants aiming to deorphanize the feline and canine ORs. […] Functional expression of the different OR sets were transient in reporter cell line A or B. The transiently transfected ORs were stimulated with 3 concentrations (n=4) of different odorants (at least 3).
chAMPion (CNG channel) assay. […]
Twenty-four hours later, the cell medium was removed manually and cells were incubated in 20 μL/well coelenterazine (11 μM) in Tyrode buffer with 0 mM calcium for 3.5 h at 37° C. Plates were then read in a luminescence plate reader (FLIPR^TETRA, Molecular Devices) with the following camera settings: exposure time: 0.533 s, maximum gain. Luminescence was recorded for 1 min after addition of 10 μL/well compounds (3× solutions prepared in Tyrode buffer with 0 mM calcium), followed by an incubation period of 30 min at 37° C. Luminescence was again recorded for 1 min after addition of 20 μL/well Tyrode buffer with 10 mM CaCl2. […]

CCCCCOC(C)=O [amyl acetate, Amyl acetate]
receptor response (dose-response, fold change) (Cat OR5A1): weaker responses

CC(C)=CCCC(C)=CC=O [citral, Citral]
receptor response (dose-response, fold change) (Cat OR5A1): no response

CC(=O)/C=C/C1=C(C)CCCC1(C)C [β-ionone, beta-Ionone]
receptor response (dose-response, fold change) (Human OR5A1): responds
EC50 (rank among the four compounds) (Dog OR5A1): lowest EC50
Emax (rank among the four compounds) (Dog OR5A1): highest Emax
receptor response (dose-response, fold change) (Cat OR5A1): strong response
